Test results published in US20140155389A1, “BICYCLIC INHIBITORS OF ALK” (ABBVIE INC., priority 2011, published 2014).
pKi: −log10 of the molar value.

molecular target: T1, ALK (Homo sapiens, UniProt Q9UM73); assay: ALK kinase assay (HTRF); type: biochemical; conditions: apparent Ki from IC50 by Cheng-Prusoff; ALK (Millipore) 3 nM or 4 nM, 50 μM ATP, 1 h at room temperature; read-out: HTRF_ALK Human - Ki
T1 construct: purchased Millipore
T1 sequence (Q9UM73 19-1620): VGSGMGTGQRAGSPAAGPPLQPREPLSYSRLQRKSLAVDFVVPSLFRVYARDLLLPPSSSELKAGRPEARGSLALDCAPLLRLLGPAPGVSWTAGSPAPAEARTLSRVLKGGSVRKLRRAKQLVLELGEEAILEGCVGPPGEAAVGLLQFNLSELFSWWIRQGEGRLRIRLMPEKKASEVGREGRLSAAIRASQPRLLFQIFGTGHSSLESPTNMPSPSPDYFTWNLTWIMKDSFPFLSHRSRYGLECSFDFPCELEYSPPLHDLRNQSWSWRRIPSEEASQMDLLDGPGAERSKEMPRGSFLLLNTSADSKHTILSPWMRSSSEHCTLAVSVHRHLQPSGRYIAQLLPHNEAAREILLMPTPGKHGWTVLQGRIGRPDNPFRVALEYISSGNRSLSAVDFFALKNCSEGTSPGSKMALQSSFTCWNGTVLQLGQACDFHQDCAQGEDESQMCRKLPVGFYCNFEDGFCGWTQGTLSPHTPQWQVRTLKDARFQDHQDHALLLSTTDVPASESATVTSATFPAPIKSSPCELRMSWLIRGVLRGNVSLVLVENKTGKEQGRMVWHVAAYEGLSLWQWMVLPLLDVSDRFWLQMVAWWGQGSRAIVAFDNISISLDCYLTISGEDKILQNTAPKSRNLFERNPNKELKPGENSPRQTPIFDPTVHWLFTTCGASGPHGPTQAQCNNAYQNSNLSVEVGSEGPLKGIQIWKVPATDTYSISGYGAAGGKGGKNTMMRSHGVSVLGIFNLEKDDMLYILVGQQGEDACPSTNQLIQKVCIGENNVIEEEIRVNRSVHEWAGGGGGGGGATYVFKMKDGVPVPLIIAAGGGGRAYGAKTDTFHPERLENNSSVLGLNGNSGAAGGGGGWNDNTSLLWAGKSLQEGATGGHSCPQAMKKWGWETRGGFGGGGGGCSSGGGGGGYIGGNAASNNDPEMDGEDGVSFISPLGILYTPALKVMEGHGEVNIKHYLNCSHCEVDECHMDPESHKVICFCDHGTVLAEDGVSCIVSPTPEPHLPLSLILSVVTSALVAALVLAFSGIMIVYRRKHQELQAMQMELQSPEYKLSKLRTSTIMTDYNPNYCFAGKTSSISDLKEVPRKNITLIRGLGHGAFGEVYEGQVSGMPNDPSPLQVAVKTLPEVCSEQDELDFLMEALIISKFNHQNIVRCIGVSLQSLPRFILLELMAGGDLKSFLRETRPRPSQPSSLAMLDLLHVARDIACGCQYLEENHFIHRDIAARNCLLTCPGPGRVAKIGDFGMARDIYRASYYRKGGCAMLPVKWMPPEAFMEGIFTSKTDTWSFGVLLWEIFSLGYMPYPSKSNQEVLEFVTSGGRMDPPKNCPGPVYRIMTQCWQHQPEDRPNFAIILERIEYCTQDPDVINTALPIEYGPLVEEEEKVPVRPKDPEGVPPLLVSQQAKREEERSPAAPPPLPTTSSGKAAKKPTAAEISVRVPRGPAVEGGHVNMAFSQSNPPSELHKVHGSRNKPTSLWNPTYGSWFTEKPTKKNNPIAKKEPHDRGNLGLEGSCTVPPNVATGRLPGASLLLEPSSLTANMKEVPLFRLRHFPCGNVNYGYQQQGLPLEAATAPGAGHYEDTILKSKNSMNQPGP

SMILES | pKi
COc1cc(N2CCNCC2)ccc1Nc1cc(Cc2c(Cl)cccc2Cl)nc2cn[nH]c(=O)c12 [Example 70, 2-(2,6-dichlorobenzyl)-4-{[2-methoxy-4-(piperazin-1-yl)phenyl]amino}pyrido[2,3-d]pyridazin-5(6H)-one] | 9.00
COc1cc(N2CCNCC2)ccc1Nc1nc(Nc2c(F)cc(F)cc2Cl)cc2cnnc(O)c12 [Example 71, 7-[(2-chloro-4,6-difluorophenyl)amino]-5-{[2-methoxy-4-(piperazin-1-yl)phenyl]amino}pyrido[3,4-d]pyridazin-4-ol] | 9.00
COc1cc(N2CCNCC2)c(C)cc1Nc1nc(Cc2c(Cl)cccc2Cl)cc2cn[nH]c(=O)c12 [Example 72, 7-(2,6-dichlorobenzyl)-5-{[2-methoxy-5-methyl-4-(piperazin-1-yl)phenyl]amino}pyrido[3,4-d]pyridazin-4(3H)-one] | 7.92
Cc1cc(Nc2nc(Cc3c(Cl)cccc3Cl)cc3cn[nH]c(=O)c23)c(F)cc1N1CCNCC1 [Example 73, 7-(2,6-dichlorobenzyl)-5-{[2-fluoro-5-methyl-4-(piperazin-1-yl)phenyl]amino}pyrido[3,4-d]pyridazin-4(3H)-one] | 9.00
COc1cc2c(cc1Nc1cc(Cc3c(Cl)cccc3Cl)cc3cn[nH]c(=O)c13)CNCC2 [Example 74, 6-(2,6-dichlorobenzyl)-8-[(6-methoxy-1,2,3,4-tetrahydroisoquinolin-7-yl)amino]phthalazin-1(2H)-one] | 8.40
COc1cc(N2CCNCC2)ccc1Nc1nc(Oc2c(F)cccc2F)cc2cn[nH]c(=O)c12 [Example 75, 7-(2,6-difluorophenoxy)-5-{[2-methoxy-4-(piperazin-1-yl)phenyl]amino}pyrido[3,4-d]pyridazin-4(3H)-one] | 8.40
COc1cc(N2CCNCC2)ccc1Nc1nc(Oc2ccccc2F)cc2cnnc(O)c12 [Example 76, 7-(2-fluorophenoxy)-5-{[2-methoxy-4-(piperazin-1-yl)phenyl]amino}pyrido[3,4-d]pyridazin-4-ol] | 8.40
COc1cc(N2CCNCC2)ccc1Nc1nc(Nc2ccc(Cl)c(Cl)c2Cl)cc2cn[nH]c(=O)c12 [Example 77, 5-{[2-methoxy-4-(piperazin-1-yl)phenyl]amino}-7-[(2,3,4-trichlorophenyl)amino]pyrido[3,4-d]pyridazin-4(3H)-one] | 8.40
COc1cc(N2CCNCC2)ccc1Nc1nc(Oc2cccc(F)c2F)cc2cnnc(O)c12 [Example 78, 7-(2,3-difluorophenoxy)-5-{[2-methoxy-4-(piperazin-1-yl)phenyl]amino}pyrido[3,4-d]pyridazin-4-ol] | 8.40
COc1cc(N2CCNCC2)ccc1Nc1nc(Oc2cccc(Cl)c2Cl)cc2cn[nH]c(=O)c12 [Example 79, 7-(2,3-dichlorophenoxy)-5-{[2-methoxy-4-(piperazin-1-yl)phenyl]amino}pyrido[3,4-d]pyridazin-4(3H)-one] | 8.30
COc1cc(N2CCNCC2)ccc1Nc1nc(Oc2c(Cl)cc(F)cc2Cl)cc2cn[nH]c(=O)c12 [Example 80, 7-(2,6-dichloro-4-fluorophenoxy)-5-{[2-methoxy-4-(piperazin-1-yl)phenyl]amino}pyrido[3,4-d]pyridazin-4(3H)-one] | 9.00
COc1cc(N2CCNCC2)ccc1Nc1nc(Oc2ccncc2Cl)cc2cn[nH]c(=O)c12 [Example 81, 7-[(3-chloropyridin-4-yl)oxy]-5-{[2-methoxy-4-(piperazin-1-yl)phenyl]amino}pyrido[3,4-d]pyridazin-4(3H)-one] | < 6.33
COc1cc(N2CCNCC2)ccc1Nc1nc(Oc2cccc(C)c2C)cc2cnnc(O)c12 [Example 82, 7-(2,3-dimethylphenoxy)-5-{[2-methoxy-4-(piperazin-1-yl)phenyl]amino}pyrido[3,4-d]pyridazin-4-ol] | 8.40
COc1cc(N2CCNCC2)ccc1Nc1nc(Oc2ccncc2F)cc2cnnc(O)c12 [Example 83, 7-[(3-fluoropyridin-4-yl)oxy]-5-{[2-methoxy-4-(piperazin-1-yl)phenyl]amino}pyrido[3,4-d]pyridazin-4-ol] | < 6.33
